Values of other authors as cited in patent publication US20240226212A1, “GENOMIC SEQUENCES FOR YEAST PROBIOTICS” (Worcester Polytechnic Institute, priority 2023, published 2024).

Test system: C. albicans

Structure (SMILES): OCCc1c[nH]c2ccccc12 [tryptophol]
- filamentation of C. albicans: shown to inhibit filamentation
